{"source": "paper PMC8269107", "about": "“Lipidation of Temporin-1CEb Derivatives as a Tool for Activity Improvement, Pros and Cons of the Approach” (International Journal of Molecular Sciences, 2021)", "key": {"C.albicans CCM 8186": {"tested_on": "C.albicans CCM 8186", "assay": "MIC, broth microdilution", "assay_type": "cell-based, Candida albicans", "conditions": "C.albicans CCM 8186, 24 h", "excerpt": "(§1) Escherichia coli (PCM 2057 = ATCC 25922), Staphylococcus aureus (PCM 2054 = ATCC 25923), Staphylococcus epidermidis (PCM 2118 = ATCC 14990), Bacillus subtilis (PCM 2224 = ATCC 9799), Bacillus cereus (PCM 482 = ATCC 10702) and Pseudomonas aeruginosa (PCM 499 = ATCC 10145) were obtained from the Polish Collection of Microorganisms. Fungi strains Candida albicans (CCM 8186 = CNTC 49/64), Candida glabrata (CCM 8270 = ATCC 90030), Candida parapsilosis (CCM 8260 = ATCC 22019) and Candida krusei (CCM 8271 = ATCC 6258) were acquired from the Czech Collection of Microorganisms. S. aureus USA300 (wild type strain), the reference strain of Klebsiella pneumoniae (ATCC 13883) and clinical isolates of Pseudomonas aeruginosa (PA1, PA2) collected from nonrelated patients admitted to the Stefan Zeromski Specialist Municipal Hospital in Krakow (Poland) were kindly provided by the research group of the Department of Microbiology, Faculty of Biochemistry, Biophysics and Biotechnology, Jagiellonian University, Krakow, Poland.\n(§2) Luria-Bertani broth (LB) and Sabouraud Dextrose broth (SB) (Biocorp, Poland) were used for cultivation of bacteria and fungi strains, respectively. The antimicrobial activity of the peptides were analyzed through determination of MIC (minimal inhibitory concentration) parameters according to Clinical and Laboratory Standards (CLSI) guidelines developed for aerobic bacteria and yeasts, respectively. Mueller-Hinton broth (MHB) was used as the working medium for all bacterial strains, while in the case of fungi, RPMI-1640 (with L-glutamine, without sodium bicarbonate) growth medium buffered with MOPS (morpholinepropanesulfonic acid) and supplemented with 2% glucose was used. Inoculum was prepared from freshly grown cultures of microorganisms at their exponential phase of growth. […] Plates were then incubated for 24 h at 37 °C in the case of bacteria and at 35 °C in the case of fungi. After that time, absorbance was read at 590 nm with a Perkin Elmer plate reader. Cultures without peptide were treated as positive control, while uninoculated media were defined as negative control. All measurements were run at least in triplicate."}, "C.glabrata CCM 8270": {"tested_on": "C.glabrata CCM 8270", "assay": "MIC, broth microdilution", "assay_type": "cell-based, Candida glabrata", "conditions": "C.glabrata CCM 8270, 24 h", "excerpt": "as §1, §2"}, "E. coli PCM 2057": {"tested_on": "E. coli PCM 2057", "assay": "MIC, broth microdilution", "assay_type": "cell-based, Escherichia coli", "conditions": "E. coli PCM 2057, 24 h", "excerpt": "as §1, §2"}, "[1]": {"tested_on": "C. albicans (CCM 8186) biofilm", "assay": "Biofilm eradication assay, pre-formed 24 h old biofilm (MTT)", "assay_type": "cell-based, Candida albicans", "conditions": "C. albicans pre-formed 24 h old biofilm, 24 h treatment", "procedure": "In the case of yeasts, the overnight culture of C. albicans in Sabouraud dextrose broth (SB) was used for inoculum preparation. Similar to above, 5 mL of 24 h culture was centrifuged, washed with PBS and then suspended in sterile RPMI-1640 medium (with L-glutamine, without sodium bicarbonate) supplemented with 2% glucose (RPMI-1640/+G) yielding the amount of about 1 × 10^7 cells per ml. Subsequently, 200 µL of yeast suspension was transferred into each well of a microtiter plate, and it was incubated stationary for the next 24 h at 35 °C.\nAfter that, each well of the plates containing bacterial or fungi biofilm was washed three times with PBS in order to remove all non-adherent cells. Then, peptide solutions of 200 µL ranging from 50 to 0,39 µg/mL prepared in TSB +/G in the case of experiments on S. aureus biofilm, and (RPMI-1640/+G) in the case of C. alibcans, were prepared and transferred into the microtiter plates. After the addition of the peptides, the experiments were continued for the next 24 h.\n(§3) The reduction in biofilm viability was analyzed by means of MTT assay. Briefly, 20 μL of MTT solution (5 mg/mL in PBS) was added to prewashed wells with exchanged medium (180 μL of fresh medium) wells containing bacterial/yeast biofilms. Plates were then incubated in the dark for the next 3 h at 37 °C. After that time, the medium was replaced with 6 mM HCl in isopropanol and, when the reduced MTT was fully dissolved, the plates were read at 570 nm. Activity against fully developed 24 h old biofilm was described as biofilm eradication concentration (BEC50 expressed in µg/mL), which corresponded to the concentration of the compound able to reduce 50% of biofilm viability compared with the growth control."}, "B. subtilis PCM 2224": {"tested_on": "B. subtilis PCM 2224", "assay": "MIC, broth microdilution", "assay_type": "cell-based, Bacillus subtilis", "conditions": "B. subtilis PCM 2224, 24 h", "excerpt": "as §1, §2"}, "S. aureus PCM 2054": {"tested_on": "S. aureus PCM 2054", "assay": "MIC, broth microdilution", "assay_type": "cell-based, Staphylococcus aureus", "conditions": "S. aureus PCM 2054, standard Mueller-Hinton broth, 24 h", "excerpt": "as §1, §2"}, "[2]": {"tested_on": "C. albicans (CCM 8186) biofilm", "assay": "Biofilm inhibition assay (MTT)", "assay_type": "cell-based, Candida albicans", "conditions": "C. albicans biofilm development, 24 h post-inoculation", "procedure": "In the case of bacteria, an overnight culture of S. aureus in Tryptic Soy Broth (TSB) supplemented with 2% glucose (TSB/+G) was used to prepare inoculum for the experiments. Briefly, 5 mL of 24 h culture was centrifuged at 5000× g, washed with sterile PBS and suspended in a fresh 2 × concentrated TSB/+G. In the case of yeasts, the overnight culture of C. albicans in Sabouraud dextrose broth (SB) was used for inoculum preparation. Similar to above, 5 mL of 24 h culture was centrifuged, washed with PBS and then suspended in sterile 2 × concentrated RPMI-1640 medium (with L-glutamine, without sodium bicarbonate) supplemented with 2% glucose (RPMI-1640/+G). In both cases, the cell concentration of the inoculum was about 1 × 10^7 cells per ml.\nFor the determination of the inhibitory concentration that reduced biofilm development by 50% (BIC50^, expressed in µg/mL), 100 µL inoculum in 2 × concentrated RPMI-1640/+G medium (in the case of C. albicans) or 2 x concentrated TSB/+G broth (in the case of S. aureus) was transferred to each well of 96-well plates containing 100 µL of serially diluted in water tested compounds. The final concentrations of the compounds were the same as those used in MIC determination studies. The 96-well plates were then incubated for 24 h at 37 °C and 35 °C in the case of bacteria and fungi, respectively. Viability of the microorganisms in the presence of the tested compounds was analyzed by means of MTT assay.\nas §3"}}, "note": "Where a SMILES comes first, the peptide text is derived from it. The star is where a group is joined. Palmitoyl = CCCCCCCCCCCCCCCC(=O)*"}
{"smiles": "CCCCCCCCCCCCCCCC(=O)N[C@H](C(=O)N[C@@H](CCCCN)C(=O)N[C@@H](CCCCN)C(=O)N[C@H](C(=O)N[C@@H](CC(C)C)C(=O)N[C@@H](CO)C(=O)N[C@@H](CCCCN)C(=O)N[C@H](C(=O)N[C@@H](CCCCN)C(=O)N[C@@H](CCCCN)C(=O)N[C@@H](CC(C)C)C(=O)N[C@@H](CC(C)C)C(N)=O)[C@@H](C)CC)[C@@H](C)CC)[C@@H](C)CC", "note": "[Compound C16-DK5] (Palmitoyl-IKKILSKIKKLL-NH2)", "values": [{"measurement": "MIC100", "setting": "C.albicans CCM 8186", "result": ">50", "unit": "µg/mL"}, {"measurement": "MIC100", "setting": "C.glabrata CCM 8270", "result": ">50", "unit": "µg/mL"}, {"measurement": "MIC100", "setting": "E. coli PCM 2057", "result": ">50", "unit": "µg/mL"}, {"measurement": "BEC50", "setting": "[1]", "result": 12.5, "unit": "µg/mL"}, {"measurement": "MIC100", "setting": "B. subtilis PCM 2224", "result": 3.13, "unit": "µg/mL"}, {"measurement": "MIC100", "setting": "S. aureus PCM 2054", "result": ">50", "unit": "µg/mL"}, {"measurement": "BIC50", "setting": "[2]", "result": ">50", "unit": "µg/mL"}]}
